In US9985214B2, “Monoamine compound, charge transport material, composition for charge transport film, organic electroluminescent element, organic EL display, and organic EL lighting” (Mitsubishi Chemical Corporation, priority 2009, dated 2018):

Legend:
Assay type in all cases: physicochemical
[1] = Measurement of solubility in m-xylene; set-up: key: +: The compound dissolved.; −: The compound remained undissolved, giving a suspension, or separated out as crystals in 12 hours
Description: <Measurement of Solubility in m-Xylene>
The compound I synthesized in [Synthesis of Compound I] above and the comparative compounds X-A and X-B represented by the following structural formulae were examined for solubility in m-xylene.

[2] = Glass transition temperature of the compound
[3] = Dissolution of the compound in the composition for luminescent-layer formation / production of element; conditions: same procedure as Example 2, cyclohexylbenzene as solvent; production of an element was impossible
Experimental: Next, a composition for luminescent-layer formation which included compound C3 represented by the following formula and the compound II obtained in Synthesis Example as charge-transporting compounds, phosphorescent metal complex D2, and cyclohexylbenzene as a solvent was prepared. The concentrations of the compound C3, the compound II, and the phosphorescent metal complex D2 in the composition were 1.25% by mass, 3.75% by mass, and 0.7% by mass, respectively.
The same procedure as in Example 2 was conducted, except that the compound X-C was used in place of the compound II.

Row | Solubility in m-xylene, Concentration 1.0 mass % [1] | Solubility in m-xylene, Concentration 5.0 mass % [1] | Solubility in m-xylene, Concentration 10 mass % [1] | Glass transition temperature [2] | behaviour of the compound after dissolution in the composition for luminescent-layer formation [3] | Structure (SMILES)
1 | + | + | + | 127 °C |  | c1ccc(-c2cccc(-c3ccc(N(c4ccc(-c5cccc(-c6cccc(-n7c8ccccc8c8ccccc87)c6)c5)cc4)c4ccc(-c5cccc(-n6c7ccccc7c7ccccc76)c5)cc4)cc3)c2)cc1 [Compound I]
2 |  |  |  |  | crystallized after dissolved | c1ccc(-c2ccc(-c3ccc(N(c4ccc(-c5cccc(-c6cccc7ccccc67)c5)cc4)c4ccc(-c5cccc(-n6c7ccccc7c7ccccc76)c5)cc4)cc3)cc2)cc1 [Compound X-C]
3 | + | − | − | 159 °C |  | c1cc(-c2ccc(N(c3ccc(-c4cccc(-n5c6ccccc6c6ccccc65)c4)cc3)c3ccc(-c4cccc(-n5c6ccccc6c6ccccc65)c4)cc3)cc2)cc(-n2c3ccccc3c3ccccc32)c1 [X-A]
4 | − | − | − | 120 °C |  | c1ccc(-c2cccc(-c3ccc(N(c4ccc(-c5cccc(-n6c7ccccc7c7ccccc76)c5)cc4)c4ccc(-c5cccc(-n6c7ccccc7c7ccccc76)c5)cc4)cc3)c2)cc1 [X-B]
